Earlier results in publication PMC8155022 (Scientific Reports, 2021).

Tests used:
[1] = tested on: patients with moderate to severe plaque psoriasis; parameters: method as in earlier work; conditions: 4 weeks of treatment, cited from earlier work
[2] = tested on: activated CCR6+ T cells from human peripheral blood; parameters: method as in PMID 27905482; conditions: cited from earlier work

| Structure (SMILES) | reduction of IL-17A and IL-17F in patient serum [1] | efficacy in patients with moderate to severe plaque psoriasis ([1]; Phase 2a) | IL-10 production [2] | IL-17A production [2] |
| --- | --- | --- | --- | --- |
| CCS(=O)(=O)c1ccc(CNC(=O)c2cnc3c(c2)CN(C[C@H]2CC[C@H](C(F)(F)F)CC2)[C@H]3C(C)C)nc1 [VTP-43742] | up to 75% | showed efficacy | – | – |
| COc1nc2ccc([C@@](O)(c3ccc(C)nc3C)c3cnnn3C)cc2c(Cl)c1Cc1ccc(C(F)(F)F)cc1 [JNJ-54271074] | – | – | slightly increased | greatly reducing |
